This note sets out measurements from publication PMC10344917, “Affinity and cooperativity modulate ternary complex formation to drive targeted protein degradation” (Nature Communications, 2023).

Holding throughout (assay type): cell-based
The target of assay [1] is T1, SMARCA2 (Homo sapiens, UniProt P51531).
T1 construct: endogenous in cells; host or cells: A375
Kind of assay: SMARCA2 degradation, MSD assay, dose response. Set-up: key to AUC (area under the dose-response curve): sum of trapezoids of POC vs dose points, h = 1. Particulars: A375 cells. The method, then: A375 cells were treated with SMARCA2 or BRD4 degraders for 2 h (4 h for BRD4) and generated lysates. SMARCA2 or BRD4 protein was measured with a variation of a sandwich ELISA that was assembled from commercially available antibodies as well as reagents and instrumentation procured from Meso Scale Discovery (MSD). Degradation parameter, DC50, is not suitable for PROTACs that induce partial/incomplete DR curves at a fixed time point; maximum drop in target protein level (Dmax) >>0. Conversely, the area under the curve (AUC) can be calculated as a degradation activity parameter for any DR curve, and it encompasses both the degradation potency (i.e., DC50) and efficacy (i.e., Dmax) of PROTACs.
A 1:3 compound dose-response titration was diluted in growth media (1:20), added to appropriate wells of a cell culture plate (1:10) and then assay plates were incubated at 37 °C, 5% CO2.
Plates were washed with 300 µL per well MSD wash buffer (MSD R61TX-1) between each step. Following the last incubation, plates were washed with MSD wash buffer then 150 µL of MSD read buffer (MSD R92TC-2) was added to each well. Plates were immediately read on a MSD plate reader (MSD Sector Imager 6000).
MSD electrochemiluminescence signals were subtracted by the average background signal from wells with lysis buffer alone. Normalized MSD values (POC) for individual compound treated wells were acquired by dividing background-subtracted assay signal by signal from vehicle control wells (cells + 0.1% DMSO) and multiplying by 100. This POC data was graphed using a nonlinear regression curve fit xy analysis and a log(inhibitor) vs response —variable slope (four parameter) model for dose response curves (Graphpad Prism 9, San Diego, CA, USA). To calculate area under the curve, all points on the curve were connected and vertical lines were drawn from each point down to y = 0, generating a series of trapezoids. The area of each trapezoid was determined using the equation A = (1/2)(h)(b1 + b2), where h = 1 (distance between points), b1 = POC of the first point and b2 = POC of the second point. The sum of all trapezoids provides an approximate area under the curve (AUC). For half-life (t1/2) determination in time course studies, a one-phase decay model was used for curve fitting and the time at which the curve crossed 50 POC was determined through interpolation (Graphpad Prism 9, San Diego, CA, USA).

For assay [2], the target named is T1, SMARCA2. Briefly: SMARCA2 degradation time course in A375 cells (MSD). The following applies: single concentration at or near maximal activity. The text has this:
This characteristic has been described as cooperativity (α > 1) and likely results from favorable PPIs present in the ternary complex. […] To measure the rate of protein degradation, we treated A375 cells with a single concentration of each PROTAC and measured the decrease in target abundance over time as shown in Figs. 4b and5b.
MSD electrochemiluminescence signals were subtracted by the average background signal from wells with lysis buffer alone. Normalized MSD values (POC) for individual compound treated wells were acquired by dividing background-subtracted assay signal by signal from vehicle control wells (cells + 0.1% DMSO) and multiplying by 100. This POC data was graphed using a nonlinear regression curve fit xy analysis and a log(inhibitor) vs response —variable slope (four parameter) model for dose response curves (Graphpad Prism 9, San Diego, CA, USA). To calculate area under the curve, all points on the curve were connected and vertical lines were drawn from each point down to y = 0, generating a series of trapezoids. The area of each trapezoid was determined using the equation A = (1/2)(h)(b1 + b2), where h = 1 (distance between points), b1 = POC of the first point and b2 = POC of the second point. The sum of all trapezoids provides an approximate area under the curve (AUC). For half-life (t1/2) determination in time course studies, a one-phase decay model was used for curve fitting and the time at which the curve crossed 50 POC was determined through interpolation (Graphpad Prism 9, San Diego, CA, USA). Additionally initial rate of degradation was determined by multiplying 100 with rate constant (τ = 0.693/t1/2).

A further assay concerns the target T2, SMARCA2-NanoLuc (Homo sapiens, UniProt P51531).
T2 construct: expressed in transfected cells; host or cells: HEK293
Briefly: NanoBRET target engagement assay, live and permeabilized HEK293 cells (SMARCA2). The following applies: SMARCA2 NanoBRET TE. The method, then: We employed a NanoBRET-based target engagement (TE) assay as reported earlier^7 for evaluating PROTACs relative permeability. In summary, live and permeabilized HEK293 cells with SMARCA2 or BRD4-NanoLuc were used for measuring IC50 values of different PROTACs. The relative shift in the IC50 was evaluated as relative binding affinity (RBA) by taking the ratio of IC50 values of live and permeabilized cells. Availability index (AI), which is a surrogate for permeability can be calculated by taking a ratio of RBA of compounds to permeable benchmark molecules. We used SMARCA bromodomain binding ligand^8 for SMARCA2 PROTACs and JQ1^9, 10 for BRD4 PROTACs as benchmark molecules.
Relative Binding Affinity (RBA) = Live-cell TE IC50 / Permeabilized-cell TE IC50
Availability Index (AI) = RBAtest cmpd / RBApermeable benchmark
Availability Index (AI) greater than one is indicative of reduced permeability compared to the benchmark.
For orientation: In BRET a luciferase serves as donor, and the signal depends on an acceptor being close.

Structures are written as SMILES. Like-named read-outs stand apart in the source and are kept apart here.

T1 sequence (P51531 whole entry): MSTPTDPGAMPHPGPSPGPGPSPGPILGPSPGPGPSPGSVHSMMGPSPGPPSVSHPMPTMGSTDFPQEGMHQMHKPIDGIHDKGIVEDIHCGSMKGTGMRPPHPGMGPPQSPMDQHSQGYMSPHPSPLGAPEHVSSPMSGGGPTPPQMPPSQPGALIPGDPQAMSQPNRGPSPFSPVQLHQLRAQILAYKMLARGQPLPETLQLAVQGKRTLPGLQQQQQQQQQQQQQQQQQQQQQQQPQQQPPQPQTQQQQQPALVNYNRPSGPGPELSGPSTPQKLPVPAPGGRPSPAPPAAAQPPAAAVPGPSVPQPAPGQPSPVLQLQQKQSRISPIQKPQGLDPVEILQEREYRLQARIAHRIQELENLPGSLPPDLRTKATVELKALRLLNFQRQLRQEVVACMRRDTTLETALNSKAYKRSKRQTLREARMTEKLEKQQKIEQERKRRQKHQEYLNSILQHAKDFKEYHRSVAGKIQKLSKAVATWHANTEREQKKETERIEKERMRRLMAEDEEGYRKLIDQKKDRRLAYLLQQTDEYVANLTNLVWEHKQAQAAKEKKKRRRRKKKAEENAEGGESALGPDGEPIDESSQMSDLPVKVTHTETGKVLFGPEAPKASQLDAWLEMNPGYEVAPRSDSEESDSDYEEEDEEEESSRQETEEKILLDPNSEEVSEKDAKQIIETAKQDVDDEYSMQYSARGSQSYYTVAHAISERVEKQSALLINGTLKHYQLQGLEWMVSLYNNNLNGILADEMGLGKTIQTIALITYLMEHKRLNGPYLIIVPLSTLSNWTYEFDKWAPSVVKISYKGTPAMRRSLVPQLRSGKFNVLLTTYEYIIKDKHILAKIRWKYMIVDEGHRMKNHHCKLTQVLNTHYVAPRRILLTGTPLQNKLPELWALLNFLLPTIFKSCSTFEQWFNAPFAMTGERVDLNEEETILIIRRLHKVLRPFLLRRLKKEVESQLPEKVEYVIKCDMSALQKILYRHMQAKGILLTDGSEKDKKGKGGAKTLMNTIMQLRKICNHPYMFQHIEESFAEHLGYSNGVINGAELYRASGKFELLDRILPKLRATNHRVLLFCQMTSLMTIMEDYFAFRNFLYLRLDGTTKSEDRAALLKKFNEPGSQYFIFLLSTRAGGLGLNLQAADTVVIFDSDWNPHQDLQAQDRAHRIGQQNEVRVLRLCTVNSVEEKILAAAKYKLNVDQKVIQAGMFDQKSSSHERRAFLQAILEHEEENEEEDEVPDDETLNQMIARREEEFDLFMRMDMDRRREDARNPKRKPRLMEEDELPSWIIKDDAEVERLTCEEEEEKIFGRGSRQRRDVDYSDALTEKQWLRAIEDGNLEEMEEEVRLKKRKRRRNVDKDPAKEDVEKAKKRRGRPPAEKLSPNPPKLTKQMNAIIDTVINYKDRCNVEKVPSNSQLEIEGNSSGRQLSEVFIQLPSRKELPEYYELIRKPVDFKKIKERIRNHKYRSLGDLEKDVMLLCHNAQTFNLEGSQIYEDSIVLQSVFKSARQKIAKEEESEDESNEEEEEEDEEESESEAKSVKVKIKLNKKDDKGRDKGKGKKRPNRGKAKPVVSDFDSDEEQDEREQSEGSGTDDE
T2 sequence (P51531 whole entry): as above

On to `Cc1ncsc1-c1ccc(CNC(=O)C2C[C@@H](O)CN2C(=O)C(NC(=O)C2(F)CC2)C(C)(C)C)c(OCCc2ccc(CN3CCN(c4cc(-c5ccccc5O)nnc4N)CC3)cc2)c1` (stereo in doubt) [Compound 11, (2R,4R)-N-(2-(4-((4-(3-amino-6-(2-hydroxyphenyl)pyridazin-4-yl)piperazin-1-yl)methyl)phenethoxy)-4-(4-methylthiazol-5-yl)benzyl)-1-((R)-2-(1-fluorocyclopropane-1-carboxamido)-3,3-dimethylbutanoyl)-4-hydroxypyrrolidine-2-carboxamide, reference compound], for which the Dmax (commonly the largest share of the target that was removed) at SMARCA2 [1] (A-375, SMARCA2 degraded, MSD assay, 2 h timepoint) was 53%. Also, on SMARCA2 [1] (SMARCA2 MSD assay, 2 h), the “AUC (area under the dose-response curve)” value worked out at 119. The DC50 (in general, the concentration at which degradation of the target reaches its halfway point) on SMARCA2 [1] (SMARCA2 degradation, MSD assay, 2 h timepoint) came to 221 nM. In addition, the “Initial Degradation Rate” value at SMARCA2 [2] was 0.25 %/min. Further, the IC50 (in general, the concentration that gives 50% inhibition) on SMARCA2-NanoLuc (live HEK293 cells, read-out: Live-Cell TE IC50) was 980 nM; on SMARCA2-NanoLuc (permeabilized HEK293 cells, read-out: Permeabilized-Cell TE IC50) it was 740 nM.
